Results reported in paper PMC7914897, “Cytotoxic Potential of a-Azepano- and 3-Amino-3,4-SeCo-Triterpenoids” (International Journal of Molecular Sciences, 2021).
Read-outs that look alike come from different tables or passages of the source.

How the values were obtained:
TK-10 (Renal cancer) = assay: NCI-60 screen (SRB, 48 h); details: Homo sapiens
CAKI-1 (Renal cancer) = assay: NCI-60 screen (SRB, 48 h); details: Homo sapiens
OVCAR-8 (Ovarian cancer) = assay: NCI-60 screen (SRB, 48 h); details: Homo sapiens, OVCAR-8
[1] = system: panel of approximately 60 cancer cell lines; assay: NCI-60 screen (SRB, 48 h), full panel
SF-539 (CNS cancer) = assay: NCI-60 screen (SRB, 48 h); details: Homo sapiens
[2] = system: A375 (malignant melanoma); assay: SRB cytotoxicity assay, 72 h; type: cell-based, human; details: Homo sapiens, A-375, 72 h, A375, 72 h, cut-off 30 µM; read-out: EC50
In short: (§1)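 Cytotoxicity is measured colorimetrically with sulforhodamine B after 72 h exposure to compound concentrations of 0–30 µM, added 24 h after seeding of exponentially growing cells. Survival relative to untreated wells yields EC50.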

MCF-7 (breast carcinoma) = assay: SRB cytotoxicity assay, 72 h; type: cell-based, human; details: Homo sapiens, MCF7; MCF-7, 72 h, cut-off 30 µM; read-out: EC50
In short: as §1

[3] = system: FaDu (hypopharyngeal carcinoma); assay: SRB cytotoxicity assay, 72 h; type: cell-based, human; details: Homo sapiens, cut-off 30 µM, read-out: EC50
In short: as §1

[4] = system: HT29 (colorectal carcinoma); assay: SRB cytotoxicity assay, 72 h; type: cell-based, human; details: Homo sapiens, HT-29; HT29, 72 h, cut-off 30 µM; read-out: EC50
In short: as §1

[5] = system: A2780 (ovarian carcinoma); assay: SRB cytotoxicity assay, 72 h; type: cell-based, human; details: Homo sapiens; A2780, 72 h, cut-off 30 µM; read-out: EC50
In short: as §1

[6] = system: NCI-H23 (NSC lung cancer); assay: NCI-60 screen (SRB, 48 h); details: Homo sapiens
[7] = system: NCI-H322M (NSC lung cancer); assay: NCI-60 screen (SRB, 48 h); details: Homo sapiens
CNS cancer subpanel = assay: NCI-60 screen, subpanel; details: Homo sapiens
SF-268 (CNS cancer) = assay: NCI-60 screen (SRB, 48 h); details: Homo sapiens
HS 578T (Breast cancer) = assay: NCI-60 screen (SRB, 48 h); details: Homo sapiens
M14 (Melanoma) = assay: NCI-60 screen (SRB, 48 h); details: Homo sapiens
[8] = system: A549/ATCC (NSC lung cancer); assay: NCI-60 screen (SRB, 48 h); details: Homo sapiens
Ovarian Cancer subpanel = assay: NCI-60 screen, subpanel; details: Homo sapiens
SW-620 (Colon cancer) = assay: NCI-60 screen (SRB, 48 h); details: Homo sapiens
UACC-62 (Melanoma) = assay: NCI-60 screen (SRB, 48 h); details: Homo sapiens
[9] = system: NIH 3T3 (non-malignant mouse fibroblasts); assay: SRB cytotoxicity assay, 72 h; type: cell-based; details: Mus musculus, NIH3T3; NIH 3T3, 72 h, cut-off 30 µM; read-out: EC50
In short: as §1

PC-3 (Prostate cancer) = assay: NCI-60 screen (SRB, 48 h); details: Homo sapiens
ACHN (Renal cancer) = assay: NCI-60 screen (SRB, 48 h); details: Homo sapiens
SN12C (Renal cancer) = assay: NCI-60 screen (SRB, 48 h); details: Homo sapiens

## Cc1ccc(S(=O)(=O)OC[C@]23CCC(C)(C)C[C@H]2C2=CC[C@@H]4[C@@]5(C)CCCNC(C)(C)[C@@H]5CC[C@@]4(C)[C@]2(C)CC3)cc1 [Compound 15]
TK-10 (Renal cancer); TK-10
  GI50: 1.77 µM
TK-10 (Renal cancer); TK-10, 48 h, read-out: TGI
  IC (TGI): 3.33 µM
TK-10 (Renal cancer); TK-10, read-out: LC50
  CC50: 6.27 µM
CAKI-1 (Renal cancer); CAKI-1
  GI50: 1.45 µM
CAKI-1 (Renal cancer); CAKI-1, 48 h, read-out: TGI
  IC (TGI): 2.82 µM
CAKI-1 (Renal cancer); CAKI-1, read-out: LC50
  CC50: 5.46 µM
OVCAR-8 (Ovarian cancer)
  GI50: 1.99 µM
[1]; 1 dose 10 µM
  Positive Cytostatic Effect (cell lines with percent growth 0 to 50 / total): 17/60
  Positive Cytotoxic Effect (cell lines with percent growth < 0 / total): 14/60
  number of cancer cell lines the compound was active against: 22 cell lines
[1]; Homo sapiens, 48 h, read-out: Mean Growth, %
  activity at 10 µM: 37.2%
[1]; Homo sapiens, 48 h, read-out: Range of Growth, %
  activity at 10 µM: -87.7 to 104%
[1]; Homo sapiens, 48 h, read-out: TGI MG_MID60, average over all cell lines
  IC (TGI): 3.8 µM
[1]; Homo sapiens, read-out: GI50 MG_MID60
  GI50: 1.99 µM
[1]; Homo sapiens, read-out: GI50 against all human tumor cell lines
  GI50: < 15 µM
[1]; Homo sapiens, read-out: GI50 against the most sensitive cell lines
  GI50: 0.2 to 0.94 µM
[1]; Homo sapiens, read-out: LC50 MG_MID60, average over all cell lines
  CC50: 18.9 µM
SF-539 (CNS cancer); SF-539
  GI50: 1.71 µM
SF-539 (CNS cancer); SF-539, 48 h, read-out: TGI
  IC (TGI): 3.15 µM
SF-539 (CNS cancer); SF-539, read-out: LC50
  CC50: 5.79 µM
[2]
  EC50: 2.36 ± 0.1 µM
MCF-7 (breast carcinoma)
  EC50: 2.4 ± 0.1 µM
[3]
  EC50: 2.02 ± 0.2 µM
[4]
  EC50: 2.33 ± 0.2 µM
[5]
  EC50: 1.48 ± 0.2 µM
[6]; NCI-H23
  GI50: 1.7 µM
[6]; NCI-H23, 48 h, read-out: TGI
  IC (TGI): 3.27 µM
[7]
  GI50: 14.9 µM
[7]; 48 h, read-out: TGI
  IC (TGI): 4.05 µM
[7]; read-out: LC50
  CC50: > 100 µM
CNS cancer subpanel; 48 h, read-out: TGI MG_MID
  IC (TGI): 4.11 µM
CNS cancer subpanel; read-out: GI50 MG_MID
  GI50: 1.78 µM
CNS cancer subpanel; read-out: LC50 MG_MID
  CC50: 26.5 µM
SF-268 (CNS cancer); SF-268
  GI50: 2.32 µM
SF-268 (CNS cancer); SF-268, 48 h, read-out: TGI
  IC (TGI): 8.44 µM
SF-268 (CNS cancer); SF-268, read-out: LC50
  CC50: 67.9 µM
HS 578T (Breast cancer)
  GI50: 1.82 µM
HS 578T (Breast cancer); 48 h, read-out: TGI
  IC (TGI): 4.08 µM
HS 578T (Breast cancer); read-out: LC50
  CC50: 9.14 µM
M14 (Melanoma); M14
  GI50: 1.87 µM
M14 (Melanoma); M14, 48 h, read-out: TGI
  IC (TGI): 3.58 µM
[8]; A549
  GI50: 1.83 µM
[8]; A549, 48 h, read-out: TGI
  IC (TGI): 3.66 µM
Ovarian Cancer subpanel; 48 h, read-out: TGI MG_MID
  IC (TGI): 3.35 µM
Ovarian Cancer subpanel; read-out: GI50 MG_MID
  GI50: 1.74 µM
Ovarian Cancer subpanel; read-out: LC50 MG_MID
  CC50: 6.03 µM
SW-620 (Colon cancer); SW-620
  GI50: 1.73 µM
SW-620 (Colon cancer); SW-620, 48 h, read-out: TGI
  IC (TGI): 3.36 µM
UACC-62 (Melanoma); UACC-62
  GI50: 1.68 µM
UACC-62 (Melanoma); UACC-62, 48 h, read-out: TGI
  IC (TGI): 3.2 µM
[9]
  EC50: 2.76 ± 0.3 µM
PC-3 (Prostate cancer); PC-3
  GI50: 1.66 µM
PC-3 (Prostate cancer); PC-3, 48 h, read-out: TGI
  IC (TGI): 3.16 µM
ACHN (Renal cancer)
  GI50: 1.68 µM
ACHN (Renal cancer); 48 h, read-out: TGI
  IC (TGI): 3.07 µM
ACHN (Renal cancer); read-out: LC50
  CC50: 5.58 µM
SN12C (Renal cancer)
  GI50: 1.67 µM
SN12C (Renal cancer); 48 h, read-out: TGI
  IC (TGI): 3.3 µM
